# Laboratory results taken from ChEMBL document CHEMBL4265980, “Hemozoin inhibiting 2-phenylbenzimidazoles active against malaria parasites” (Eur J Med Chem, 2018).
# pIC50: −log10 of the molar value. Activity calls are given as the source filed them. No cut-off for these calls is given here.
# Assays:
# Plasmodium falciparum [1] = assay: Antiplasmodial activity against asexual erythrocyte stage of chloroquine-sensitive Plasmodium falciparum NF54 infected in human red blood cells after 48 hrs by lactate dehydrogenase assay; type: functional, organism-based; conditions: for pIC50 / IC50: NF54, 48 h; for pIC50: read-out: IC50; for IC50: read-out: pIC50 (converted)
# Plasmodium falciparum [2] = assay: Antiplasmodial activity against asexual erythrocyte stage of chloroquine-resistant Plasmodium falciparum Dd2 infected in human red blood cells after 48 hrs by lactate dehydrogenase assay; type: functional, organism-based; conditions: Dd2, 48 h
# [3] = Resistance index, ratio of IC50 for asexual erythrocyte stage of chloroquine-resistant Plasmodium falciparum Dd2 infected in human red blood cells to IC50 for asexual erythrocyte stage of chloroquine-sensitive Plasmodium falciparum NF54 infected in human red blood cells; type: functional
# [4] = Selectivity index, ratio of IC50 for CHO cells to IC50 for asexual erythrocyte stage of chloroquine-sensitive Plasmodium falciparum NF54 infected in human red blood cells; type: toxicity, cell-based; conditions: Chinese hamster, read-out: Ratio IC50
# [5] = Selectivity index, ratio of IC50 for CHO cells to IC50 for asexual erythrocyte stage of chloroquine-resistant Plasmodium falciparum Dd2 infected in human red blood cells; type: toxicity, cell-based; conditions: Chinese hamster, read-out: Ratio IC50
# [6] = Inhibition of beta hematin formation after 5 to 6 hrs by NP40 detergent-based assay
# CHO = assay: Cytotoxicity against CHO cells by MTT assay; type: cell-based; conditions: Cricetulus griseus
# Plasmodium falciparum [7] = assay: Antiplasmodial activity against Plasmodium falciparum NF54 assessed as increase in undigested hemoglobin levels after 32 hrs by spectrophotometric analysis; type: functional, organism-based
# Plasmodium falciparum [8] = assay: Antiplasmodial activity against Plasmodium falciparum NF54 assessed as decrease in hemozoin levels after 32 hrs by spectrophotometric analysis; type: functional, organism-based
pIC50 (Plasmodium falciparum [1]),IC50 (Plasmodium falciparum [1]) [µM],1/IC50 [6] [µM⁻¹],pIC50 [6],SMILES,other results
5.70,2,0.0028,3.45,CC(C)(C)c1ccc(C(=O)Nc2ccc(-c3nc4ccccc4[nH]3)cc2)cc1,–
–,–,–,–,CC(=O)Nc1ccccc1,Activity (Plasmodium falciparum [1]): inactive; inhibition [6]: inactive
5.14,7.24,0.0236,4.37,O=C(Nc1ccc(-c2nc3ccccc3[nH]2)cc1)c1cccs1,–
5.92,1.2,0.0215,4.33,O=C(Nc1ccc(-c2nc3ccccc3[nH]2)cc1)c1ccc[nH]1,–
5.92,1.2,0.0398,4.60,O=C(Nc1ccc(-c2nc3ccccc3[nH]2)cc1)c1cccc(Cl)c1,–
–,–,–,–,O=C(O)c1cncc(Br)c1,Activity (Plasmodium falciparum [1]): inactive; inhibition [6]: inactive
5.87,1.35,0.0356,4.55,O=C(Nc1ccc(-c2nc3ccccc3[nH]2)cc1)c1cccc(C(F)(F)F)c1,–
–,–,–,–,Nc1ccc(-c2nc3ccccc3[nH]2)cc1,Activity (Plasmodium falciparum [1]): inactive; inhibition [6]: inactive
–,–,–,–,O=C(Nc1ccccc1)c1cncc(Br)c1,Activity (Plasmodium falciparum [1]): inactive; inhibition [6]: inactive
–,–,–,–,CNC(=O)c1cncc(Br)c1,Activity (Plasmodium falciparum [1]): inactive; inhibition [6]: inactive
–,–,–,–,CC(=O)Nc1ccc(-c2nc3ccccc3[nH]2)cc1,Activity (Plasmodium falciparum [1]): inactive; inhibition [6]: inactive
5.26,5.5,0.0257,4.41,COc1ccccc1C(=O)Nc1ccc(-c2nc3ccccc3[nH]2)cc1,–
4.91,12.3,0.0346,4.54,O=C(Nc1ccc(-c2nc3ccccc3[nH]2)cc1)c1ccccc1[N+](=O)[O-],–
5.23,5.89,0.0119,4.08,O=C(Nc1ccc(-c2nc3ccccc3[nH]2)cc1)c1ccco1,–
5.14,7.24,0.0111,4.05,O=C(Nc1ccc(-c2nc3ccccc3[nH]2)cc1)c1ccc(Cl)cc1Cl,–
–,–,–,–,CC[C@H]1CN2CCc3cc(OC)c(OC)cc3[C@@H]2C[C@@H]1C[C@H]1NCCc2cc(OC)c(OC)cc21 [EMETINE],pIC50 (CHO): 6.92
5.89,1.29,0.0408,4.61,O=C(Nc1ccc(-c2nc3ccccc3[nH]2)cc1)c1cccc(Br)c1,–
4.82,15.1,0.0262,4.42,O=C(Nc1ccc(-c2nc3ccccc3[nH]2)cc1)c1ccccc1Cl,–
4.19,64.6,0.0006,2.75,O=C(Nc1ccc(-c2nc3ccccc3[nH]2)cc1)c1ccc(Cl)cc1,–
–,–,–,–,c1ccc2[nH]cnc2c1,Activity (Plasmodium falciparum [1]): inactive; inhibition [6]: inactive
–,257,0.0003,2.41,O=C(Nc1ccc(-c2nc3ccccc3[nH]2)cc1)c1ccccc1,–
4.94,11.5,0.0281,4.45,O=C(Nc1ccc(-c2nc3ccccc3[nH]2)cc1)c1cccnc1,–

SMILES,pIC50 (Plasmodium falciparum [1]),IC50 (Plasmodium falciparum [1]) [µM],1/IC50 [6] [µM⁻¹],pIC50 [6],other results
O=C(Nc1ccc(-c2nc3ccccc3[nH]2)cc1)c1cncc(C(F)(F)F)c1,6.10,0.794,0.0602,4.78,pIC50 (Plasmodium falciparum [2]): 5.96; Ratio IC50 [3]: 1.4; selectivity ratio [4]: 44; selectivity ratio [5]: 32; pIC50 (CHO): 4.46
O=C(Nc1ccc(-c2nc3ccccc3[nH]2)cc1)c1cc([N+](=O)[O-])cc([N+](=O)[O-])c1,6.17,0.676,0.0752,4.88,pIC50 (Plasmodium falciparum [2]): 6.51; Ratio IC50 [3]: 0.46; selectivity ratio [4]: 308; selectivity ratio [5]: 665; pIC50 (CHO): 3.69
O=C(Nc1ccc(-c2nc3ccccc3[nH]2)cc1)c1cc(Cl)nc(Cl)c1,6.28,0.525,0.0595,4.77,pIC50 (Plasmodium falciparum [2]): 6.47; Ratio IC50 [3]: 0.64; selectivity ratio [4]: 347; selectivity ratio [5]: 541; pIC50 (CHO): 3.74
O=C(Nc1ccc(-c2nc3ccccc3[nH]2)cc1)c1cncc(Br)c1,6.39,0.407,0.0313,4.49,Activity (Plasmodium falciparum [7]): Active; Activity (Plasmodium falciparum [8]): Active; pIC50 (Plasmodium falciparum [2]): 6.02; Ratio IC50 [3]: 2.4; selectivity ratio [4]: 461; selectivity ratio [5]: 197; pIC50 (CHO): 3.72
